# Measurements: patent publication US20110015264A1 (priority 2006, published 2011)
# Like-named read-outs stand apart in the source and are kept apart here.
# Experiments:
# [1] = target: N9 neuraminidase (Influenza A virus, UniProt P03472); type: binding, A/H1N9 (NWS/G70) avian virus
# [2] = tested on: influenza virus; set-up: species or system BALB/c mice; conditions: mouse, in vivo
# [3] = target: neuraminidase enzyme N9 from H1N9 virus (Influenza A virus, UniProt P03472); experiment: biochemical; set-up: species or system A/H1N9 (NWS/G70) avian virus; conditions: for IC90: read-out: IC90 against N9 enzyme
# [4] = tested on: A/NWS/33 (H1N1) influenza virus; conditions: mouse, in vivo
# [5] = tested on: A/Victoria/3/75 (H3N2) influenza virus; set-up: species or system BALB/c mice; conditions: mouse, in vivo
# [6] = tested on: influenza; conditions: human, in vivo, po; cited from earlier work
# [7] = target: H1N1 neuraminidase (UniProt P03470); conditions: read-out: IC50 against H1N1; Bantia et al. 2001; cited from earlier work
# Sequence of H1N1 neuraminidase (P03470 whole entry, looked up): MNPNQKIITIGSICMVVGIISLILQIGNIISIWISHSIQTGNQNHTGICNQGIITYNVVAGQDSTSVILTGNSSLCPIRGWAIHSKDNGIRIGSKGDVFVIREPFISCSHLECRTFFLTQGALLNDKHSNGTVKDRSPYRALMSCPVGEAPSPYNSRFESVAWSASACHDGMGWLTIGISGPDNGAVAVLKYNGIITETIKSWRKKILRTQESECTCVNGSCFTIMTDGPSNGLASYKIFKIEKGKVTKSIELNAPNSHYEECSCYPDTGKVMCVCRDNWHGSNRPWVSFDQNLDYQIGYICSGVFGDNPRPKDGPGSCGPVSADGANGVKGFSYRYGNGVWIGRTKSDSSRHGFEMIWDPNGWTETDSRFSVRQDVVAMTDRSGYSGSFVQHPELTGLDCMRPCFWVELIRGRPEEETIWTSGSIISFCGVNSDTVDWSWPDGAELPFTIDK
# Sequence of neuraminidase enzyme N9 from H1N9 virus (P03472 whole entry, looked up): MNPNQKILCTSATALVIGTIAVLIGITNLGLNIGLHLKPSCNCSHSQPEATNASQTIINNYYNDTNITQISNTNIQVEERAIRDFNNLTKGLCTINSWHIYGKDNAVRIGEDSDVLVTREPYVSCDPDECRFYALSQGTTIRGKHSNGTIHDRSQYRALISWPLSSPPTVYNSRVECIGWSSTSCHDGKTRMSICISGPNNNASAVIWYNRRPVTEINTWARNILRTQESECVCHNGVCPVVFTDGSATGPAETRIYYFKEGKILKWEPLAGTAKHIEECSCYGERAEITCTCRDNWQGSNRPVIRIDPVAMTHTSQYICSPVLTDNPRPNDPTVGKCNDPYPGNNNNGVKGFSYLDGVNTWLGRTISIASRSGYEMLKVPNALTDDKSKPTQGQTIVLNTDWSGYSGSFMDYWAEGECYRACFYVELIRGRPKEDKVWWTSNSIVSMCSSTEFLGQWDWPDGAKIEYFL
# Sequence of N9 neuraminidase (P03472 whole entry, looked up): as above
structure (smiles),measurement,setting,value
"CCC(CC)C(NC(C)=O)[C@@H]1[C@H](O)[C@@H](C(=O)O)C[C@H]1NC(=N)N (stereo partly drawn) [peramivir, (1S,2S,3R,4R)-3-(1-Acetamido-2-ethylbutyl)-4-guanidino-2-hydroxycyclopentane-carboxylic acid]",t1/2 of dissociation from N9 neuraminidase,[1],> 24 h
same,effectiveness of delayed treatment,[2],highly effective
same,protection against lethality,[2],complete protection against lethality
same,weight loss by day 5,[2],no significant weight loss
same,weight loss by day 5,[2]; po,no significant weight loss
same,IC50,[3],1.3 ± 0.4 nM
same,IC90,[3],5 nM
same,prevention of weight loss in infected mice,[4],effective in preventing weight loss
same,survival,[4],40%
same,survival rate,[4],50%
same,effectiveness in terms of survival,[4]; 1 mg/kg,not effective
same,mean days to death,[4]; 1 mg/kg,significant increase
same,weight loss and mortality,[4]; 10 mg/kg,significantly reduced
same,weight loss by day 5,[4]; 10 mg/kg,no weight loss
same,"weight loss, % of initial weight",[4]; 10 mg/kg,about 1.7 % of initial weight
same,signs of drug-related toxicity,[4]; 20 mg/kg,No signs of drug-related toxicity
same,survival,"[4]; po, 1 mg/kg/day",60%
same,weight loss by day 5,"[4]; po, 10 mg/kg",0.22 g
same,protection against lethality,"[4]; po, 10 mg/kg/day",Complete protection against lethality
same,mean weight loss by day 8,[5],4.5 g
same,"mean weight loss by day 8, % of weight",[5],25%
same,survived (protection against lethality),[5],9/10
same,inhibitory effect on influenza in humans,[6],undesirably low inhibitory effect
same,IC50,[7],0.11 nM
"CCOC(=O)C1=C[C@@H](OC(CC)CC)[C@H](NC(C)=O)[C@@H](N)C1 [oseltamivir, reference compound]",survival rate,[4],10%
same,mice survived,[4]; 10 mg/kg,3 out of 10
same,protection against lethality,[4]; 10 mg/kg,30%
same,weight loss,[4]; 10 mg/kg,about 4 g
same,weight loss and mortality,[4]; 10 mg/kg,no efficacy
same,"weight loss, % of initial weight",[4]; 10 mg/kg,25 % of initial weight
same,greatest mean weight loss at day 8,"[4]; po, 2 mg/kg/day",1.34 g
same,greatest mean weight loss at day 8,"[4]; po, 10 mg/kg/day",0 g
same,mean weight loss by day 8,[5]; po,about 5.1 g
same,"mean weight loss by day 8, % of weight",[5]; po,28%
same,survived (protection against lethality),[5]; po,9/10
"CC(=O)N[C@H]1[C@H]([C@H](O)[C@H](O)CO)OC(C(=O)O)=C[C@@H]1N=C(N)N [zanamivir, reference compound]",t1/2 of dissociation from N9 neuraminidase,[1],1.25 h
same,IC90,[3],10 nM
